Columns and labels:
TAS1R2 [1] = molecular target: T1, TAS1R2 (Homo sapiens, UniProt Q8TE23); assay: cryo-EM structures of human/human and human/mouse receptor with advantame; EC50 from cell-based calcium imaging (human/human)
T1 construct: VFT domain of TAS1R2 in the TAS1R2/TAS1R3 heterodimer; with TAS1R3 (human; also mouse TAS1R3)
T1 sequence (Q8TE23 22-839): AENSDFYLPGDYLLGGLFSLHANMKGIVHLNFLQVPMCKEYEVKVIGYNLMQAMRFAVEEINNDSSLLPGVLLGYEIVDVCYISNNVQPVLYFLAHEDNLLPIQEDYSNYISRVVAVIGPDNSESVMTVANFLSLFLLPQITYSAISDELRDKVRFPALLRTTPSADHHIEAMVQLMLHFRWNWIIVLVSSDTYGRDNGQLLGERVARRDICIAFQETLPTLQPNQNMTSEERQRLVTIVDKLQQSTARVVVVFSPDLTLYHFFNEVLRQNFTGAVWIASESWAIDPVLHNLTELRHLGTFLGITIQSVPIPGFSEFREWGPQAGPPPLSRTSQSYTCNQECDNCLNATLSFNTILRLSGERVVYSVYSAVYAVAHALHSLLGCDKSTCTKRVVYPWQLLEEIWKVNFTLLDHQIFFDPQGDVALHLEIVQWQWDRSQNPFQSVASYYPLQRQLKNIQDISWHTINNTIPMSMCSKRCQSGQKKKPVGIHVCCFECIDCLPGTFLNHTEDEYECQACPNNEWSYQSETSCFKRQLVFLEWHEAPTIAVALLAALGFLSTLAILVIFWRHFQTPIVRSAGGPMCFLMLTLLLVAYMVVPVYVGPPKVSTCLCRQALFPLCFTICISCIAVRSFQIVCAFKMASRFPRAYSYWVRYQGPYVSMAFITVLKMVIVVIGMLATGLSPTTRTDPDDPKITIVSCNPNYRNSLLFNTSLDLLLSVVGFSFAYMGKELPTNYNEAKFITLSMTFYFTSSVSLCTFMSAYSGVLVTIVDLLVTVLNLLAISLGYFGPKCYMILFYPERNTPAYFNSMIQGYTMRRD
T1 sequence (Q7RTX0 21-852 partner): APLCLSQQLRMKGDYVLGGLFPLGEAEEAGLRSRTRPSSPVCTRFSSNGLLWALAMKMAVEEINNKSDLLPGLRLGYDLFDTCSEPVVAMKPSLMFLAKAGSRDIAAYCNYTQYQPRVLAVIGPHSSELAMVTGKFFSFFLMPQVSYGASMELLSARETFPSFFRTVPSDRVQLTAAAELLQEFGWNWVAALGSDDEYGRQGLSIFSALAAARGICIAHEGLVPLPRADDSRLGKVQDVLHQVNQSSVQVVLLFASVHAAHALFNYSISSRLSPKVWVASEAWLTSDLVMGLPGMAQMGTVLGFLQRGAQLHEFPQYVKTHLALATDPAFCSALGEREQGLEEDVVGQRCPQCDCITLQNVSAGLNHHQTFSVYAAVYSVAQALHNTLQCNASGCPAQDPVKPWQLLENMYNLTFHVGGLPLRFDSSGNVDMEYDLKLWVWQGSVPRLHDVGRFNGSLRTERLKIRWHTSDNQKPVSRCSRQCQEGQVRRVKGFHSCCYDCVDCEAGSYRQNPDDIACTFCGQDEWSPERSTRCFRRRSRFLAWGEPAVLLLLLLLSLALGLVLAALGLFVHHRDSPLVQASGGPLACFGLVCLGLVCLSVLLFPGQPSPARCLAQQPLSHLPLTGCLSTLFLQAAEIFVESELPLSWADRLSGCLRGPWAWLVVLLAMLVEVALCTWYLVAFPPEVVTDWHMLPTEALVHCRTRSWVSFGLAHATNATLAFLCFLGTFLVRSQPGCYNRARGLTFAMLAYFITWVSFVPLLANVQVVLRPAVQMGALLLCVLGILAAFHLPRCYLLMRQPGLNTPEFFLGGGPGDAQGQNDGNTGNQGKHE
From the text: cryo-EM structures of human/human and human/mouse receptor with advantame; EC50 from cell-based calcium imaging (human/human) on TAS1R2 | Advantame also yields well-defined ligand density in the TAS1R2 VFT pocket of both human/mouse and human/human receptors

TAS1R2 [2] = molecular target: T2, TAS1R2 (Homo sapiens, UniProt Q8TE23); assay: cell-based calcium imaging of the expressed human/human receptor
T2 construct: TAS1R2/TAS1R3 heterodimer; with TAS1R3 (human)
T2 sequence (Q8TE23 20-839): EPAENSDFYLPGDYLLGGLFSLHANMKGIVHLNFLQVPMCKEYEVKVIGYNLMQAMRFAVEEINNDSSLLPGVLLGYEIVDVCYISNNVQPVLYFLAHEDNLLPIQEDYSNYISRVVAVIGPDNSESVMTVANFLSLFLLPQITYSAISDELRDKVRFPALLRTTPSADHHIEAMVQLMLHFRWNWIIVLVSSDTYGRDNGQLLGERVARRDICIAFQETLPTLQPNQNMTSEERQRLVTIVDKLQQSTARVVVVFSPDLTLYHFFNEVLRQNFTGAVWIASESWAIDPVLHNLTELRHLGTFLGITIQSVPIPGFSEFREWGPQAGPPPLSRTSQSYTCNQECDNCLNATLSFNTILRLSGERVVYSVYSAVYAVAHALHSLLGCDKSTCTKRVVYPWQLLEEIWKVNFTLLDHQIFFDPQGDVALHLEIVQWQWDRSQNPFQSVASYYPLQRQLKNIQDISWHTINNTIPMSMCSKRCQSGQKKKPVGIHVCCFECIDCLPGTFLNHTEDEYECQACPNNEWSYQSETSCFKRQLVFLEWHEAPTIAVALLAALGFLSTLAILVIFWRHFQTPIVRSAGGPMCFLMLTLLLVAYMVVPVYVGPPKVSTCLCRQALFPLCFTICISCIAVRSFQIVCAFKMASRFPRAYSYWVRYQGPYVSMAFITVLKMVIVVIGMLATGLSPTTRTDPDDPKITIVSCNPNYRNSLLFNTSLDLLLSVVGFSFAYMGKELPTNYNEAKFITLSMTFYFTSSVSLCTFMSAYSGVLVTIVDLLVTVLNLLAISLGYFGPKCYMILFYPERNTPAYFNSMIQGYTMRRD
T2 sequence (Q7RTX0 21-852 partner): T1 sequence (Q7RTX0 21-852 partner)

| SMILES | EC50 (TAS1R2 [1]) [nM] | EC50 (TAS1R2 [2]) [nM] |
| --- | --- | --- |
| COC(=O)[C@H](Cc1ccccc1)NC(=O)[C@H](CC(=O)O)NCCCc1ccc(OC)c(O)c1 [Adv, advantame] | 900 | – |
| COC(=O)[C@H](Cc1ccccc1)NC(=O)[C@H](CC(=O)O)NCCC(C)(C)C [neotame] | – | 2700 |
